# Source: PMC7093416, “Selective USP7 inhibition elicits cancer cell killing through a p53-dependent mechanism” (Scientific Reports, 2020)
# System: panel of 484 cancer cell lines
# Assay: PRISM cancer cell line profiling, 5 days
# Format: cell-based
# Set-up: AUC: unit not given beside the values
# Procedure: Cancer cell line profiling was performed using the Broad’s PRISM platform. Cell treatment and data analysis were performed as described in Yu et al[42]. Raw Luminex signal was converted to AUC values for each cell line as described. The resulting AUC profile for each compound was modeled against DepMap using the limma package in R[71]. Because hotspot mutation analysis was performed against DepMap, TP53 annotations in Fig. 6c,d are directly from DepMap.
compound,measurement,setting,value
CN1CCN(CCC(=O)Nc2ccc3c(=O)n(CC4(O)CCN(C(=O)[C@@H](CCCNC(=O)c5ccc6c(Cl)c7c(nc6c5)CCCC7)Cc5ccccc5)CC4)cnc3c2)CC1 [XL177A],AUC,HCC1438_LUNG,0.7615
same,AUC,HCC1588_LUNG,1.23
same,AUC,HCC1806_BREAST,0.9812
same,AUC,HCC1937_BREAST,1.015
same,AUC,HCC4006_LUNG,0.9625
same,AUC,HCT15_LARGE_INTESTINE,1.19
same,AUC,HCT116_LARGE_INTESTINE,0.9421
same,AUC,HDQP1_BREAST,0.9973
same,AUC,HEC1A_ENDOMETRIUM,1.131
same,AUC,HEC1B_ENDOMETRIUM,0.9267
same,AUC,HEC6_ENDOMETRIUM,0.9564
same,AUC,HEC59_ENDOMETRIUM,1.149
same,AUC,HEC108_ENDOMETRIUM,0.8058
same,AUC,HEC151_ENDOMETRIUM,0.7769
same,AUC,HEC251_ENDOMETRIUM,0.792
same,AUC,HEC265_ENDOMETRIUM,0.8327
same,AUC,HEP3B217_LIVER,1.13
same,AUC,HEYA8_OVARY,0.9929
same,AUC,HGC27_STOMACH,1.014
same,AUC,HLF_LIVER,1.111
same,AUC,HMC18_BREAST,0.9153
same,AUC,HOS_BONE,1.0422
same,AUC,HPAC_PANCREAS,1.477
same,AUC,HS294T_SKIN,0.8762
same,AUC,HS618T_LUNG,0.9543
same,AUC,HS729_SOFT_TISSUE,0.9806
same,AUC,HS766T_PANCREAS,0.877
same,AUC,HS852T_SKIN,1.359
same,AUC,HS939T_SKIN,1.069
same,AUC,HS944T_SKIN,1.047
same,AUC,HSC2_UPPER_AERODIGESTIVE_TRACT,0.968
same,AUC,HSC3_UPPER_AERODIGESTIVE_TRACT,0.8381
same,AUC,HT29_LARGE_INTESTINE,1.3
same,AUC,HT55_LARGE_INTESTINE,1.168
same,AUC,HT144_SKIN,1.076
same,AUC,HT1080_SOFT_TISSUE,1.011
same,AUC,HT1376_URINARY_TRACT,1.127
same,AUC,HUCCT1_BILIARY_TRACT,0.9724
same,AUC,HUH6_LIVER,0.8768
same,AUC,HUH7_LIVER,1.027
same,AUC,HUH28_BILIARY_TRACT,1.165
same,AUC,HUPT3_PANCREAS,1.003
same,AUC,IALM_LUNG,0.9313
same,AUC,IGR1_SKIN,0.998
same,AUC,IGR37_SKIN,0.9905
same,AUC,IGROV1_OVARY,0.7266
same,AUC,IM95_STOMACH,0.6846
same,AUC,IPC298_SKIN,0.897
same,AUC,ISHIKAWAHERAKLIO02ER_ENDOMETRIUM,1.0984
same,AUC,ISTMES1_PLEURA,0.9912
same,AUC,ISTMES2_PLEURA,1.073
same,AUC,J82_URINARY_TRACT,1.012
same,AUC,JHH1_LIVER,0.7875
same,AUC,JHH4_LIVER,1.303
same,AUC,JHH5_LIVER,1.313
same,AUC,JHH6_LIVER,1.146
same,AUC,JHH7_LIVER,1.089
same,AUC,JHOC5_OVARY,0.9299
same,AUC,JHOM1_OVARY,1.1
same,AUC,JHOS2_OVARY,1.084
same,AUC,JHUEM2_ENDOMETRIUM,0.6526
same,AUC,JIMT1_BREAST,0.9668
same,AUC,JMSU1_URINARY_TRACT,1.405
same,AUC,K029AX_SKIN,0.9501
same,AUC,KALS1_CENTRAL_NERVOUS_SYSTEM,0.9126
same,AUC,KELLY_AUTONOMIC_GANGLIA,1.086
same,AUC,KMBC2_URINARY_TRACT,0.7761
same,AUC,KMRC1_KIDNEY,1.1591
same,AUC,KMRC3_KIDNEY,1.033
same,AUC,KMRC20_KIDNEY,1.2
same,AUC,KNS42_CENTRAL_NERVOUS_SYSTEM,1.183
same,AUC,KNS60_CENTRAL_NERVOUS_SYSTEM,1.16
same,AUC,KNS62_LUNG,0.8251
same,AUC,KNS81_CENTRAL_NERVOUS_SYSTEM,0.9475
same,AUC,KP2_PANCREAS,1.066
same,AUC,KP3_PANCREAS,1.01
same,AUC,KP4_PANCREAS,0.8954
same,AUC,KPL1_BREAST,0.9211
same,AUC,KU1919_URINARY_TRACT,0.8697
same,AUC,KYSE30_OESOPHAGUS,0.8748
same,AUC,KYSE70_OESOPHAGUS,0.8646
same,AUC,KYSE140_OESOPHAGUS,1.147
same,AUC,KYSE150_OESOPHAGUS,0.9935
same,AUC,KYSE180_OESOPHAGUS,1.01
same,AUC,KYSE270_OESOPHAGUS,0.9741
same,AUC,KYSE410_OESOPHAGUS,1.031
same,AUC,KYSE510_OESOPHAGUS,0.9351
same,AUC,KYSE520_OESOPHAGUS,0.8676
same,AUC,L33_PANCREAS,1.236
same,AUC,LC1SQSF_LUNG,1.124
same,AUC,LCLC103H_LUNG,1.104
same,AUC,LI7_LIVER,1.1644
same,AUC,LK2_LUNG,1.455
same,AUC,LMSU_STOMACH,0.9257
same,AUC,LN18_CENTRAL_NERVOUS_SYSTEM,0.8921
same,AUC,LN229_CENTRAL_NERVOUS_SYSTEM,1.185
same,AUC,LNCAPCLONEFGC_PROSTATE,0.7244
same,AUC,LOUNH91_LUNG,1.175
same,AUC,LOVO_LARGE_INTESTINE,1.153
same,AUC,LOXIMVI_SKIN,0.9286
same,AUC,LS180_LARGE_INTESTINE,0.8962
same,AUC,LS411N_LARGE_INTESTINE,1.328
same,AUC,LS513_LARGE_INTESTINE,1.158
same,AUC,LS1034_LARGE_INTESTINE,1.385
same,AUC,LU99_LUNG,0.9975
same,AUC,LUDLU1_LUNG,1.119
same,AUC,LXF289_LUNG,0.9272
same,AUC,MALME3M_SKIN,0.9568
same,AUC,MCAS_OVARY,0.987
same,AUC,MCF7_BREAST,0.9375
same,AUC,MDAMB175VII_BREAST,1.118
same,AUC,MDAMB231_BREAST,0.9911
same,AUC,MDAMB435S_SKIN,0.9274
same,AUC,MDAMB436_BREAST,0.9312
same,AUC,MDAMB468_BREAST,0.902
same,AUC,MELHO_SKIN,0.9951
same,AUC,MELJUSO_SKIN,0.9827
same,AUC,MESSA_SOFT_TISSUE,0.5444
same,AUC,MEWO_SKIN,0.9674
same,AUC,MFE280_ENDOMETRIUM,1.202
same,AUC,MFE296_ENDOMETRIUM,1.106
same,AUC,MFE319_ENDOMETRIUM,1.097
